Results from ChEMBL document CHEMBL4311962, “Benzofuran-isatin hybrids and their in vitro anti-mycobacterial activities against multi-drug resistant Mycobacterium tuberculosis” (Eur J Med Chem, 2019).

How the values were obtained:
[1] = Cytotoxicity against CHO cells assessed as reduction in cell viability incubated for 72 hrs by MTT assay; assay type: cell-based, Cricetulus griseus; conditions: chinese hamster
[2] = Metabolic stability in SPF ICR mouse liver microsomes assessed as half life […]; assay type: ADME, Microsome
[3] = Cmax in SPF ICR mouse at 25 mg/kg, po administered as single dose measured for 0.25 to 24 hrs; assay type: ADME, organism-based; set-up: dose 25 mg/kg, route oral; conditions: in vivo
[4] = Tmax in SPF ICR mouse at 25 mg/kg, po administered as single dose measured for 0.25 to 24 hrs; assay type: ADME, organism-based; conditions: in vivo
[5] = AUC (0 to infinity) in SPF ICR mouse at 25 mg/kg, po administered as single dose measured for 0.25 to 24 hrs; assay type: ADME, organism-based; set-up: dose 25 mg/kg, time infinity, route oral; conditions: in vivo
[6] = Elimination half life in SPF ICR mouse at 25 mg/kg, po administered as single dose measured for 0.25 to 24 hrs; assay type: ADME, organism-based; conditions: in vivo, read-out: beta t1/2 (converted)

CCOC(=O)c1c(-c2ccccc2)oc2ccc(OCCCN3C(=O)/C(=N/O)c4ccccc43)cc12
CC50 at 72 h [1]: 512 µM

CCOC(=O)c1c(-c2ccc(F)cc2)oc2ccc(OCCCCCCN3C(=O)/C(=N/OC)c4ccccc43)cc12
CC50 at 72 h [1]: 128 µM

CNC(=O)c1c(-c2ccc(O)cc2)oc2ccc(O)c(CN3CCCCC3)c12
CC50 at 72 h [1]: > 1020 µM | half-life [2]: > 1 h

CCOC(=O)c1c(-c2ccc(F)cc2)oc2ccc(OCCCN3C(=O)/C(=N/O)c4ccccc43)cc12
CC50 at 72 h [1]: 256 µM

CCOC(=O)c1c(-c2ccccc2)oc2ccc(OCCCN3C(=O)C(=O)c4cc(OC)ccc43)cc12
CC50 at 72 h [1]: 512 µM

CCOC(=O)c1c(-c2ccc(OC)cc2)oc2ccc(OCCCN3C(=O)C(=O)c4cc(F)ccc43)cc12
CC50 at 72 h [1]: 64 µM

CCOC(=O)c1c(-c2ccc(F)cc2)oc2ccc(OCCCCCCN3C(=O)C(=O)c4cc(OC)ccc43)cc12
CC50 at 72 h [1]: 256 µM

CCOC(=O)c1c(-c2ccccc2)oc2ccc(OCCCN3C(=O)/C(=N/O)c4cc(OC)ccc43)cc12
CC50 at 72 h [1]: 512 µM

CCOC(=O)c1c(-c2ccc(F)cc2)oc2ccc(OCCCN3C(=O)C(=O)c4ccccc43)cc12
CC50 at 72 h [1]: 256 µM

CCOC(=O)c1c(-c2ccc(F)cc2)oc2ccc(OCCCCCCN3C(=O)/C(=N\O)c4cc(OC)ccc43)cc12
CC50 at 72 h [1]: 512 µM

CCOC(=O)c1c(-c2ccc(OC)cc2)oc2ccc(OCCCCCCN3C(=O)/C(=N/NC(N)=S)c4cc(F)ccc43)cc12
CC50 at 72 h [1]: 128 µM | Cmax [3]: 2540 ng/mL | half-life [2]: 0.29 h | Tmax [4]: 1.81 h | AUC(0-inf) [5]: 3800 ng·h/mL | half-life [6]: 2.32 h

CCO/N=C1\C(=O)N(CCCCCCOc2ccc3oc(-c4ccc(F)cc4)c(C(=O)OCC)c3c2)c2ccc(OC)cc21
CC50 at 72 h [1]: 256 µM

CCOC(=O)c1c(-c2ccc(F)cc2)oc2ccc(OCCN3C(=O)C(=O)c4cc(OC)ccc43)cc12
CC50 at 72 h [1]: 512 µM

CCOC(=O)c1c(-c2ccccc2)oc2ccc(OCCN3C(=O)C(=O)c4cc(F)ccc43)cc12
CC50 at 72 h [1]: 64 µM

CCOC(=O)c1c(-c2ccccc2)oc2ccc(OCCCCCCN3C(=O)C(=O)c4ccccc43)cc12
CC50 at 72 h [1]: 128 µM

CCOC(=O)c1c(-c2ccc(OC)cc2)oc2ccc(OCCCCN3C(=O)C(=O)c4ccccc43)cc12
CC50 at 72 h [1]: 256 µM

CCOC(=O)c1c(-c2ccc(OC)cc2)oc2ccc(OCCCCCN3C(=O)C(=O)c4ccccc43)cc12
CC50 at 72 h [1]: 128 µM

CCOC(=O)c1c(-c2ccc(F)cc2)oc2ccc(OCCN3C(=O)C(=O)c4ccccc43)cc12
CC50 at 72 h [1]: 128 µM

CCOC(=O)c1c(-c2ccccc2)oc2ccc(OCCCN3C(=O)C(=O)c4ccccc43)cc12
CC50 at 72 h [1]: 256 µM

CCOC(=O)c1c(-c2ccc(F)cc2)oc2ccc(OCCN3C(=O)C(=O)c4cc(F)ccc43)cc12
CC50 at 72 h [1]: 64 µM

NNC(=O)c1ccncc1 [ISONIAZID]
CC50 at 72 h [1]: 256 µM

CO[C@H]1/C=C/O[C@@]2(C)Oc3c(C)c(O)c4c(O)c(c(/C=N/N5CCN(C)CC5)c(O)c4c3C2=O)NC(=O)/C(C)=C\C=C\[C@H](C)[C@H](O)[C@@H](C)[C@@H](O)[C@@H](C)[C@H](OC(C)=O)[C@@H]1C [RIFAMPIN]
CC50 at 72 h [1]: 512 µM
